From ChEMBL document CHEMBL4017483, “Potent and selective oxytocin receptor agonists without disulfide bridges” (Bioorg Med Chem Lett, 2017)
Numbered stars: 1 amine (or outer) side, 2 acyl side, 3 side chain; on linkers, the order of the positions; unused ones are H or OH. Bridge positions count the residues as written; N and C are the ends. Square brackets hold non-standard residues; d marks the D form. Peptide text beside a SMILES is read from it. Hyp = O=C(O)[C@@H]1C[C@@H](O)CN1; tBuAla = CC(C)(C)C[C@H](N)C(=O)O; X1 = O=C(CCC[*:2])[*:1]; Mpa = O=C(O)CCS

What was measured:
Homo sapiens [1] = species on record: Homo sapiens; assay: Selectivity ratio of EC50 for human V1b receptor to EC50 for human OTR
Vasopressin V1b receptor = biological target: T1, Vasopressin V1b receptor (Homo sapiens, UniProt P47901); assay: Agonist activity at human V1b receptor expressed in CHO cells assessed as calcium mobilization measured after 30 mins by Fluo-4-AM dye based FLIPR assay; type: cell-based
T1 sequence (P47901 whole entry): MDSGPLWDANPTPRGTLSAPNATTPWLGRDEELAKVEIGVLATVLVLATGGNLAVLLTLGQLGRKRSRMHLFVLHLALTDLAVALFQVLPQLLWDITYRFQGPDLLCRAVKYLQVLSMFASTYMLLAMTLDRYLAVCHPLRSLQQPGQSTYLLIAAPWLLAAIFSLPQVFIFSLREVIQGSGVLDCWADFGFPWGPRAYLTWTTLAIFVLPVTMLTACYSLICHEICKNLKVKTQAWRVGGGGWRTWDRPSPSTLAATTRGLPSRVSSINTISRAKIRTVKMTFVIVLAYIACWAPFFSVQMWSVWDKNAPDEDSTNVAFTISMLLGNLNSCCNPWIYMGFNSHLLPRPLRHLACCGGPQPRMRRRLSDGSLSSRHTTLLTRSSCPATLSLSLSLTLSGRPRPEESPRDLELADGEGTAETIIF

Vasopressin V1a receptor = Vasopressin V1a receptor (Homo sapiens, UniProt P37288); assay: Agonist activity at human V1a receptor expressed in CHO cells assessed as calcium mobilization measured after 30 mins by Fluo-4-AM dye based FLIPR assay; type: cell-based
Homo sapiens [2] = species on record: Homo sapiens; assay: Selectivity ratio of EC50 for human V1a receptor to EC50 for human OTR
Oxytocin receptor = biological target: T2, Oxytocin receptor (Homo sapiens, UniProt P30559); assay: Agonist activity at human OTR expressed in CHO cells assessed as calcium mobilization measured after 30 mins by Fluo-4-AM dye based FLIPR assay; type: functional, cell-based
T2 sequence (P30559 whole entry): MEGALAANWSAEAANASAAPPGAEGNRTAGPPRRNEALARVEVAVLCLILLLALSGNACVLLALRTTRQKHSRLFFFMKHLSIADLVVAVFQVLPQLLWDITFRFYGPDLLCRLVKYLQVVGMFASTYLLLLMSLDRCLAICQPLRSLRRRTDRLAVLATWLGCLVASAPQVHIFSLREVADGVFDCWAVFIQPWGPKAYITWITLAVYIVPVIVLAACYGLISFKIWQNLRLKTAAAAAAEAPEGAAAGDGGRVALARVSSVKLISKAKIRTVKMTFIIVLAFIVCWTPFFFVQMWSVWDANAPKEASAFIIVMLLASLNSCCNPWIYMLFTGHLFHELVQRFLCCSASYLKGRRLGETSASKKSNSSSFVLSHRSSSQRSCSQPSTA

Chain of Vasopressin V1a receptor (P37288 whole entry): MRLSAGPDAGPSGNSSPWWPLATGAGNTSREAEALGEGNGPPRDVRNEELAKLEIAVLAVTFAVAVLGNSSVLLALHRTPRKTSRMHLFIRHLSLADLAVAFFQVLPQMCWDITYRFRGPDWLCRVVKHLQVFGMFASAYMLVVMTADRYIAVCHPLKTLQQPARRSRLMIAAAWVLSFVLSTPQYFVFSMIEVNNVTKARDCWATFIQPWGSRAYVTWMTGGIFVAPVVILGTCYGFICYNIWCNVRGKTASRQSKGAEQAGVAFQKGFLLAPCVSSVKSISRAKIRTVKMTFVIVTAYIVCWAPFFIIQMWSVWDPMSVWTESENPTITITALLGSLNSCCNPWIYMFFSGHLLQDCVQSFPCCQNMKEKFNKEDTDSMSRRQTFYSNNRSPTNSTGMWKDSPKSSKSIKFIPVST

Row | Compound | Ratio EC50 (Homo sapiens [1]) | EC50 (Vasopressin V1b receptor) [nM] | EC50 (Vasopressin V1a receptor) [nM] | Ratio EC50 (Homo sapiens [2]) | EC50 (Oxytocin receptor) [nM]
1 | CCCCCC[C@H](NC(=O)[C@@H]1CCCN1C(=O)[C@@H]1CSSCCC(=O)N[C@@H](Cc2ccc(O)cc2)C(=O)N[C@@H]([C@@H](C)CC)C(=O)N[C@@H](CCC(N)=O)C(=O)N[C@@H](CC(N)=O)C(=O)N1)C(=O)NCC(N)=O | 20 | 0.55 | 3.1 | 120 | 0.027
2 | CC[C@H](C)[C@@H]1NC(=O)[C@H](Cc2ccc(O)cc2)NC(=O)CCSSC[C@@H](C(=O)N2C[C@@H](O)C[C@H]2C(=O)N[C@@H](CC(C)C)C(=O)NCC(N)=O)NC(=O)[C@H](CC(N)=O)NC(=O)[C@H](CCC(N)=O)NC1=O | 1200 | 8.2 | > 100 | > 10000 | 0.007
3 | CC[C@H](C)[C@@H]1NC(=O)[C@H](Cc2ccc(O)cc2)NC(=O)CCSSC[C@@H](C(=O)N2CCC[C@H]2C(=O)N[C@@H](CC(C)(C)C)C(=O)NCC(N)=O)NC(=O)[C@H](CC(N)=O)NC(=O)[C@H](CCC(N)=O)NC1=O | > 10000 | > 100 | > 100 | > 10000 | 0.0086
4 | CC[C@H](C)[C@@H]1NC(=O)[C@H](Cc2ccc(O)cc2)NC(=O)CCSSC[C@@H](C(=O)N2CCC[C@H]2C(=O)N[C@@H](CC(C)C)C(=O)N(C)CC(N)=O)NC(=O)[C@H](CC(N)=O)NC(=O)[C@H](CCC(N)=O)NC1=O | > 100 | > 100 | > 100 | > 100 | 0.12
5 | CCCC[C@H](NC(=O)[C@@H]1CCCN1C(=O)[C@@H]1CSSCCC(=O)N[C@@H](Cc2ccc(O)cc2)C(=O)N[C@@H]([C@@H](C)CC)C(=O)N[C@@H](CCC(N)=O)C(=O)N[C@@H](CC(N)=O)C(=O)N1)C(=O)NCC(N)=O | 33 | 0.5 | 4.4 | 290 | 0.015
6 | CC[C@H](C)[C@@H]1NC(=O)[C@H](Cc2ccc(O)cc2)NC(=O)CCSSC[C@@H](C(=O)N2CCCCC2C(=O)N[C@@H](CC(C)C)C(=O)NCC(N)=O)NC(=O)[C@H](CC(N)=O)NC(=O)[C@H](CCC(N)=O)NC1=O (stereo partly drawn) | 310 | 4 | > 100 | > 1000 | 0.013
7 | CC[C@H](C)[C@@H]1NC(=O)[C@H](Cc2ccc(O)cc2)NC(=O)CCSSC[C@@H](C(=O)N2C[C@H](O)C[C@H]2C(=O)N[C@@H](CC(C)C)C(=O)NCC(N)=O)NC(=O)[C@H](CC(N)=O)NC(=O)[C@H](CCC(N)=O)NC1=O | > 10000 | > 100 | > 100 | > 10000 | 0.0053
8 | CCCCCCC(NC(=O)[C@@H]1CCCN1C(=O)[C@@H]1CSSCCC(=O)N[C@@H](Cc2ccc(O)cc2)C(=O)N[C@@H]([C@@H](C)CC)C(=O)N[C@@H](CCC(N)=O)C(=O)N[C@@H](CC(N)=O)C(=O)N1)C(=O)NCC(N)=O (stereo partly drawn) | 20 | 0.55 | 3.1 | 120 | 0.027
9 | CC[C@H](C)[C@@H]1NC(=O)[C@H](Cc2ccc(O)cc2)NC(=O)CCSSC[C@@H](C(=O)N2CCC[C@H]2C(=O)N[C@@H](CC2CCCCC2)C(=O)NCC(N)=O)NC(=O)[C@H](CC(N)=O)NC(=O)[C@H](CCC(N)=O)NC1=O | 140 | 1.4 | > 100 | > 1000 | 0.01
10 | S | > 100 | > 100 | > 100 | > 100 | 0.12
11 | CC[C@H](C)[C@@H]1NC(=O)[C@H](Cc2ccc(O)cc2)NC(=O)CCSSC[C@@H](C(=O)N2CCC[C@H]2C(=O)N[C@@H](CC(C)C)C(=O)NNC(N)=O)NC(=O)[C@H](CC(N)=O)NC(=O)[C@H](CCC(N)=O)NC1=O | 970 | 7.3 | 70 | 9300 | 0.0075
12 | CC[C@H](C)[C@@H]1NC(=O)[C@H](Cc2ccc(O)cc2)NC(=O)CCSSC[C@@H](C(=O)N2CCC[C@H]2C(=O)N[C@@H](CC(C)C)C(=O)NCC(N)=O)NC(=O)[C@H](CC(N)=O)NC(=O)[C@H](CCC(N)=O)NC1=O | – | 3.2 | – | – | –
13 | CC[C@H](C)[C@@H]1NC(=O)[C@H](Cc2ccc(O)cc2)NC(=O)CCCSC[C@@H](C(=O)N2CCC[C@H]2C(=O)N[C@@H](CC(C)C)C(=O)NCC(N)=O)NC(=O)[C@H](CC(N)=O)NC(=O)[C@H](CCC(N)=O)NC1=O (YIQNCPLG-NH2; linker N-5 via X1) | 970 | 6.5 | 45 | 6700 | 0.0067
14 | CC[C@H](C)[C@@H]1NC(=O)[C@H](Cc2ccc(O)cc2)NC(=O)CCCSC[C@@H](C(=O)N2CCC[C@H]2C(=O)N[C@@H](CC(C)(C)C)C(=O)NCC(N)=O)NC(=O)[C@H](CC(N)=O)NC(=O)[C@H](CCC(N)=O)NC1=O (YIQNCP[tBuAla]G-NH2; linker N-5 via X1) | > 10000 | > 100 | > 100 | > 10000 | 0.0065
15 | CC[C@H](C)[C@@H]1NC(=O)[C@H](Cc2ccc(O)cc2)NC(=O)CCCSC[C@@H](C(=O)N2C[C@H](O)C[C@H]2C(=O)N[C@@H](CC(C)C)C(=O)NCC(N)=O)NC(=O)[C@H](CC(N)=O)NC(=O)[C@H](CCC(N)=O)NC1=O (YIQNC[Hyp]LG-NH2; linker N-5 via X1) | > 10000 | > 100 | > 100 | > 10000 | 0.0055
16 | CC[C@H](C)[C@@H]1NC(=O)[C@H](C)NC(=O)CCSSC[C@@H](C(=O)N2CCC[C@H]2C(=O)N[C@@H](CC(C)C)C(=O)NCC(N)=O)NC(=O)[C@H](CC(N)=O)NC(=O)[C@H](CCC(N)=O)NC1=O ([Mpa]AIQNCPLG-NH2; disulfide 1-6) | – | > 100 | > 100 | – | > 100
17 | CC[C@H](C)[C@@H]1NC(=O)[C@H](CCC(=O)O)NC(=O)CCSSC[C@@H](C(=O)N2CCC[C@H]2C(=O)N[C@@H](CC(C)C)C(=O)NCC(N)=O)NC(=O)[C@H](CC(N)=O)NC(=O)[C@H](CCC(N)=O)NC1=O ([Mpa]EIQNCPLG-NH2; disulfide 1-6) | – | > 100 | > 100 | – | > 100
18 | CC[C@H](C)[C@@H]1NC(=O)[C@H](CCCNC(=N)N)NC(=O)CCSSC[C@@H](C(=O)N2CCC[C@H]2C(=O)N[C@@H](CC(C)C)C(=O)NCC(N)=O)NC(=O)[C@H](CC(N)=O)NC(=O)[C@H](CCC(N)=O)NC1=O ([Mpa]RIQNCPLG-NH2; disulfide 1-6) | – | > 100 | > 100 | – | > 100
19 | CC[C@H](C)[C@@H]1NC(=O)[C@H](CO)NC(=O)CCSSC[C@@H](C(=O)N2CCC[C@H]2C(=O)N[C@@H](CC(C)C)C(=O)NCC(N)=O)NC(=O)[C@H](CC(N)=O)NC(=O)[C@H](CCC(N)=O)NC1=O ([Mpa]SIQNCPLG-NH2; disulfide 1-6) | – | > 100 | > 100 | – | > 100
20 | CC(C)C[C@H](NC(=O)[C@@H]1CCCN1C(=O)[C@@H]1CSSCCC(=O)N[C@@H](Cc2ccc(O)cc2)C(=O)N[C@@H](CCC(=O)O)C(=O)N[C@@H](CCC(N)=O)C(=O)N[C@@H](CC(N)=O)C(=O)N1)C(=O)NCC(N)=O ([Mpa]YEQNCPLG-NH2; disulfide 1-6) | – | > 100 | > 100 | – | > 100
21 | CC[C@H](C)[C@@H]1NC(=O)[C@H](Cc2ccc(O)cc2)NC(=O)CCSSC[C@@H](C(=O)N2CCC[C@H]2C(=O)N[C@@H](CC(C)C)C(=O)NCC(N)=O)NC(=O)[C@H](Cc2ccccc2)NC(=O)[C@H](CCC(N)=O)NC1=O ([Mpa]YIQFCPLG-NH2; disulfide 1-6) | – | > 100 | > 100 | – | > 100
22 | CC[C@H](C)[C@@H]1NC(=O)[C@H](Cc2ccc(O)cc2)NC(=O)CCSSC[C@@H](C(=O)N2CCC[C@H]2C(=O)N[C@@H](CC(C)C)C(=O)NCC(N)=O)NC(=O)[C@H](CC(C)C)NC(=O)[C@H](CCC(N)=O)NC1=O ([Mpa]YIQLCPLG-NH2; disulfide 1-6) | – | > 100 | > 100 | – | > 100
23 | CC[C@H](C)[C@@H]1NC(=O)[C@H](Cc2ccc(O)cc2)NC(=O)CCSSC[C@@H](C(=O)N2CCC[C@H]2C(=O)N[C@@H](CC(C)C)C(=O)NCC(N)=O)NC(=O)[C@H](CCCNC(=N)N)NC(=O)[C@H](CCC(N)=O)NC1=O ([Mpa]YIQRCPLG-NH2; disulfide 1-6) | – | > 100 | > 100 | – | > 100
24 | CC(C)C[C@H](NC(=O)[C@@H]1CCCN1C(=O)[C@@H]1CSSCCC(=O)N[C@@H](Cc2ccc(O)cc2)C(=O)N[C@@H](CCCNC(=N)N)C(=O)N[C@@H](CCC(N)=O)C(=O)N[C@@H](CC(N)=O)C(=O)N1)C(=O)NCC(N)=O ([Mpa]YRQNCPLG-NH2; disulfide 1-6) | – | > 100 | > 100 | – | > 100
